Read-outs that look alike come from different tables or passages of the source. Some results are limits rather than exact numbers.

Data set [1] relates to RNA polymerase II (RNA pol II). Put plainly: Compound selectivity by real-time fluorescent quantitative PCR in A549 cells: gene regulated by RNA pol II. The class given is cell-based. Particulars: for Expression of genes regulated by RNA pol II (β-actin): 72 h, qPCR ΔΔCt, significance by T-Test. The protocol:
(§1) Tumor cells A549 were plated at an appropriate density and incubated overnight. The cells were treated with compounds or DMSO for 72 h, and total cellular RNA was extracted according to the instructions of TaqMan™ Fast Advanced Cells-to-CT™ Kit (Invitrogen #A35377). Briefly, the cells were washed with PBS twice. Supernatants were discarded, and 50 μL/well of lysis buffer was added. The cells were incubated at room temperature for 5 min. Then, 5 μL of stop buffer was added. The mixture was left to stand for 2 min and then placed on ice in preparation for reverse transcription and extraction of cDNA. QPCR was carried out according to the requirements of TaqMan® Fast Advanced Master Mix (Invitrogen). Eukaryotes have three different nuclear RNA polymerases, namely RNA polymerase I (RNA pol I), RNA polymerase II (RNA pol II) and RNA polymerase III (RNA pol III). To eliminate the effect of the compounds on the inhibition of the activity of other RNA polymerases, we selected 18S rRNA, 28S rRNA; β-actin; 5S rRNA; ND1, CYTB and COX1 transcriptionally regulated by RNA Pol I, II, III and POLRMT. Whether the mRNA levels of these genes were inhibited was detected. The qPCR results were analyzed by the ΔΔCt method and statistically analyzed by Graphpad8.0. The significant differences were statistically analyzed by T-Test.

Data set [2] deals with RNA polymerase I (RNA pol I). Description: Compound selectivity by real-time fluorescent quantitative PCR in A549 cells: genes regulated by RNA pol I. The class given is cell-based. The conditions noted are these: for Expression of genes regulated by RNA pol I (18S, 28S): 72 h, qPCR ΔΔCt, significance by T-Test. The procedure:
as §1

Data set [3] in a line: Pharmacokinetic assay in CD1 mice. The class given is in vivo. Particulars: for F: bioavailability; for maximum plasma concentration Cmax compared with IMT1B / plasma exposure AUC compared with IMT1B: comparison in words; for half-life: Table I-3, read-out: T1/2 (h) for oral administration (converted). The protocol:
pharmacokinetic assay of compounds was carried out in CD1 mice aged 6-8 weeks with IMT1B as a positive control. The compounds and the positive control were dissolved in 30% aqueous hydroxypropyl-β-cyclodextrin solution containing 25% PEG400 and administered via intravenous injection (1 mg/kg) or intragastric administration (5 mg/kg). Blood samples were collected at 0.033, 0.083, 0.25, 0.5, 1, 2, 4, 8, 24 h and 0.083, 0.25, 0.5, 1, 2, 4, 8, 24 h respectively after administration.
The concentration of the compounds in plasma samples was analyzed using the LC-MS/MS method. Pharmacokinetic calculations were performed using WinNonlin (Phoenix™, version 8.3) or other similar software. The following pharmacokinetic parameters were calculated from the plasma concentration vs. time data: for intravenous administration: T1/2, C0, AUClast, AUCinf, MRTinf, Cl, Vss, regression coefficient, etc.; for oral administration: T1/2, Cmax, Tmax, AUClast, AUCinf, bioavailability, etc. The above parameter data were statistically calculated and described using descriptive statistics such as mean value and standard deviation.

Another data set has as its target T1, POLRMT (Homo sapiens, UniProt O00411).
T1 construct: endogenous in cells; host or cells: A549
Put plainly: Compound selectivity by real-time fluorescent quantitative PCR in A549 cells: genes regulated by POLRMT. The class given is cell-based. The conditions noted are these: 72 h, qPCR ΔΔCt, significance by T-Test. The procedure:
as §1

In another data set the test system is MOLM-13-luc tumor cells. Put plainly: In vivo pharmacodynamic test, MOLM-13-luc orthotopic mouse model of leukemia. The protocol: The efficacy of compounds was evaluated using an orthotopic mouse model of leukemia. […] After the cell confluence reached 80%-90%, the cells were subcultured into separate flasks. The tumor cells in the logarithmic growth phase were used for the inoculation of tumors in vivo. Approximately 7 days after the inoculation of the tumor cells, according to the body weights of the animals and optical signal intensity at tumor sites, the animals were randomly divided into 4 groups, namely solvent control group [5% TPGS in PH 8 buffer (50 mM potassium dihydrogen phosphate buffer), BID, intragastric administration], IMT1B (50 mpk, BID, intragastric administration), A1-1-5 (25 mpk, BID, intragastric administration) and A1-1-5 (50 mpk, BID, intragastric administration), with 10 animals in each group. Tumor growth was monitored, and behavioral changes in the animals were also monitored.
During the experiment, all the animals were weighed twice a week. The percentage of body weight change (BW change, %) was calculated using the following formula: BW change=(BW Day X/BW Day 0)×100, where BW Day X is the body weight of the animals on the day of administration, and BW Day 0 is the body weight of the animals on the day of grouping.
Mice were imaged twice a week according to their status using the small animal living imaging system IVIS Lumina III (Perkin Elmer). The signal intensity of the bioluminescence imaging (BLI, unit: photons/s) at tumor cell inoculation sites in mice was monitored, which served as the main indicator for evaluating tumor growth and the efficacy of drugs. The specific operation procedures were as follows.
After the mice were intraperitoneally injected with D-luciferin (manufactured by Perkin Elmer, 15 mg/mL solution, injected at […] according to the body weight of experimental animals), the animals were subjected to inhalation anesthesia using 1%-2% isoflurane. Approximately 10 minutes after the injection of D-luciferin, the animals were imaged using IVIS Lumina III. The imaging results were analyzed and processed using the Living Image software (Perkin Elmer), and the optical signal intensity in the ROI (regions of interest) of the whole body of each animal was calculated. […] The administration and imaging were continued for the animals in other groups. At the endpoint of the experiment, the median survival times of all groups throughout the experiment were calculated, and the curves were plotted.

Another data set concerns A2780 cells. Description: Determination of cell activity (CellTiter-Glo Luminescent Cell Viability Assay). The class given is cell-based. The conditions noted are these: A2780 cells, 7 days treatment, CellTiter-Glo, read-out: IC50. The protocol:
To examine the effect of compounds on cell viability, ATP was directly quantified using the CellTiter-Glo Luminescent Cell Viability Assay (Promega) to determine the number of viable cells.
Cell density was selected based on optimal signal intensity and growth curve for the inoculation of A2780 cells. The cells were incubated at 37° C. and 5% C02 overnight. Cells were treated with blank group, DMSO group and compound group, respectively, at 37° C. and 5% C02 for 7 days. The prepared solutions were added to cell wells according to the instructions of CellTiter-Glo (Promega), and shaken at a speed of 400 g for 2 min. Then, the solutions were centrifuged at 1000 g for 2 min and incubated at rest for 30 min to ensure a complete reaction. […] readings were taken using a multi-label microplate reader (Perkin Elmer) to calculate IC50 values.

The test system of data set [4] is RNA polymerase III (RNA pol III). Description: Compound selectivity by real-time fluorescent quantitative PCR in A549 cells: gene regulated by RNA pol III. Particulars: for Expression of genes regulated by RNA pol III (5S): 72 h, qPCR ΔΔCt, significance by T-Test. The class given is cell-based. The protocol: as §1
The mark [5] stands for this setting: main pharmacokinetic parameters, Table I-4.
The mark [6] stands for this setting: mouse, plasma, po, 5 mg/kg, main pharmacokinetic parameters, Table I-4.
The mark [7] stands for this setting: mouse, plasma, po, 5 mg/kg, main pharmacokinetic parameters, Table I-4, read-out: Cmax.
The mark [8] stands for this setting: mouse, plasma, po, intragastric administration 5 mg/kg.
Setting [9] is: at the same dose (50 mpk, BID, intragastric).

T1 sequence (O00411 42-1230): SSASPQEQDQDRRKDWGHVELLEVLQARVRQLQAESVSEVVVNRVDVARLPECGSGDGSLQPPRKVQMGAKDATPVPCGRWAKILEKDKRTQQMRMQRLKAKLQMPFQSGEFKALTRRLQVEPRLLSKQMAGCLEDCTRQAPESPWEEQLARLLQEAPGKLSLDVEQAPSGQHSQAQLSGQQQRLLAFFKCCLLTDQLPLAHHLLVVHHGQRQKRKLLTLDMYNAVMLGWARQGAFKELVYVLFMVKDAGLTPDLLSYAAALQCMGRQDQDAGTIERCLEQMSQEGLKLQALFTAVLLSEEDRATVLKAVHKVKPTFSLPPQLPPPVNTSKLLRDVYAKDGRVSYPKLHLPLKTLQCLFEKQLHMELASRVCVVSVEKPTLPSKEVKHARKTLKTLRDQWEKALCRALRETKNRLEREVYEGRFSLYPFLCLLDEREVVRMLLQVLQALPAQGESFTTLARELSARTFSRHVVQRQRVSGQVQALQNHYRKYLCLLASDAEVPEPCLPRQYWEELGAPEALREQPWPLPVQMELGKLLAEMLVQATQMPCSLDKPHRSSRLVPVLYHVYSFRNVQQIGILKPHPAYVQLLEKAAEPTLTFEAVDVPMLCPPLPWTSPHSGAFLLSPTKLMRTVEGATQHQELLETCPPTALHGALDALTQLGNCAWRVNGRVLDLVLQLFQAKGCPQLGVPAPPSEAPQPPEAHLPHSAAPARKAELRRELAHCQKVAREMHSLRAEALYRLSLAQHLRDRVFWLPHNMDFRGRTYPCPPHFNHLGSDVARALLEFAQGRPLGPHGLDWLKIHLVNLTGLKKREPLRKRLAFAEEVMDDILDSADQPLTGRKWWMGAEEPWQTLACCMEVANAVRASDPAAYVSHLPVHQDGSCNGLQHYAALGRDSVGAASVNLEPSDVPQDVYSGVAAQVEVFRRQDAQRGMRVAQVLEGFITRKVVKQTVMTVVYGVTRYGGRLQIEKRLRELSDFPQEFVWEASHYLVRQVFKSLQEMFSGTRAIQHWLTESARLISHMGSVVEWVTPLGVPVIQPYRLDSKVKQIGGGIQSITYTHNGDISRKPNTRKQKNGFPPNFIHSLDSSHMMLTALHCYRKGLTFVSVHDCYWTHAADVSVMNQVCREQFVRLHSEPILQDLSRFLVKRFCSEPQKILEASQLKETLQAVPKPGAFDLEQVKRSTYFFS

Turning to `C[C@@H](Oc1ccc2c(-c3ccc(F)cc3Cl)cc(=O)oc2c1)C(=O)c1cccc(C(=O)O)c1` [Compound A1-1-5], in data set [1], the “Expression of genes regulated by RNA pol II (β-actin)” value was “(-) ((-) represents P≥ 0.05)”. Also, the “Expression of genes regulated by RNA pol I (18S, 28S)” value in data set [2] is “(-) ((-) represents P≥ 0.05)”. In data set [3] (Table I-4), this compound had an F of 85.846%. For the same compound, in data set [3], the “maximum plasma concentration Cmax compared with IMT1B” value is on record as “significantly superior to IMT1B” and the “plasma exposure AUC compared with IMT1B” value is “significantly superior to IMT1B”. In data set [3] (setting [5]), this compound showed a T1/2 of 3.158 h. In data set [3] (setting [6]), this compound registered an AUC(0-inf) of 179 µg·h/mL and an area under the curve AUC(0-t) of 178 µg·h/mL. Besides, the highest concentration (Cmax) in data set [3] (setting [7]) worked out at 44100 ng/mL. Moreover, the half-life in data set [3] (setting [8]) is 3.16 h. For the same compound, the “Expression of genes regulated by POLRMT (ND1, CYTB, COX1)” value on POLRMT is “(++) ((++) represents P < 0.01)”. The “efficacy at a relatively low dose” value in the data set with MOLM-13-luc tumor cells (MOLM13 orthotopic hematological tumor model, BID intragastric) was “effective at a relatively low dose”. Besides, in the data set on MOLM-13-luc tumor cells (MOLM13 orthotopic hematological tumor model, BID intragastric, 25 and 50 mpk), the “tumor inhibitory effect (BLI imaging)” value is on record as “good tumor inhibitory effect”. Moreover, in the data set on MOLM-13-luc tumor cells (setting [9]), the “median survival time compared with IMT1B” value was “significantly superior to IMT1B” and the “tumor inhibition compared with IMT1B” value is recorded as “significantly superior to IMT1B”. Further, in the data set with A2780 cells (Homo sapiens, 168 h), the IC50 lay within 20 to 100 nM. Also, the “Expression of genes regulated by RNA pol III (5S)” value in data set [4] was “(-) ((-) represents P≥ 0.05)”.
The compound `CC(Oc1ccc2c(-c3ccc(F)cc3Cl)cc(=O)oc2c1)C(=O)c1cc(F)cc(C(=O)O)c1` (stereo not shown) [Compound A-1-2-1-93] had a F in data set [3] (Table I-4) of 102.733%. For the same compound, in data set [3], the “maximum plasma concentration Cmax compared with IMT1B” value is “significantly superior to IMT1B” and the “plasma exposure AUC compared with IMT1B” value is on record as “significantly superior to IMT1B”. In addition, the T1/2 in data set [3] (setting [5]) stood at 11.706 h. For the same compound, in data set [3] (setting [6]), the AUC(0-inf) is 211 µg·h/mL and the AUC(0-t) worked out at 155 µg·h/mL. For the same compound, in data set [3] (setting [7]), the Cmax stood at 8960 ng/mL. Moreover, the half-life in data set [3] (setting [8]) was 11.7 h. Moreover, in the data set on A2780 cells (Homo sapiens, 168 h), the IC50 lay in the range of 20 to 100 nM.
In the case of `CC(Oc1ccc2c(-c3ccc(F)cc3Cl)cc(=O)oc2c1)C(=O)c1cc(F)c(O)c(F)c1` (stereo not shown) [Compound A-1-2-1-94], the half-life in data set [3] (setting [8]) is 4.57 h. In addition, the IC50 with A2780 cells (Homo sapiens, 168 h) was under 20 nM.
`CC(Oc1ccc2c(-c3ccc(F)cc3Cl)cc(=O)oc2c1)C(=O)C1CCN(C2CC2)CC1` (stereo not shown) [Compound A-1-7-1-2]: in data set [3] (setting [8]), the half-life was 3.78 h. Besides, in the data set with A2780 cells (Homo sapiens, 168 h), the IC50 lay in the range of 100 to 1000 nM.
Take `CC(Oc1ccc2c(-c3ccc(F)cc3Cl)cc(=O)oc2c1)C(=O)c1ccc[nH]1` (stereo not shown) [Compound A-1-10-1-4]: in data set [3] (setting [8]), the half-life is 3.76 h. The IC50 in the data set on A2780 cells (Homo sapiens, 168 h) was in the range of 100 to 1000 nM.
In the case of `C[C@@H](Oc1ccc2c(-c3ccc(F)cc3Cl)cc(=O)oc2c1)C(=O)N1CCC[C@H](C(=O)O)C1` [IMT1B, reference compound], the “Expression of genes regulated by RNA pol II (β-actin)” value in data set [1] is listed as “(-) ((-) represents P≥ 0.05)”. For the same compound, the “inhibition of the activity of RNA polymerase II” value in data set [1] (qPCR, in words) is listed as “do not inhibit”. Further, the “Expression of genes regulated by RNA pol I (18S, 28S)” value in data set [2] is “(-) ((-) represents P≥ 0.05)”. For the same compound, in data set [2] (qPCR, in words), the “inhibition of the activity of RNA polymerase I” value is “do not inhibit”. Also, the F in data set [3] (Table I-4) is on record as 80.236%. In addition, the “T1/2 (h) for oral administration” value in data set [3] (intragastric administration 5 mg/kg, Table I-3) turned out to be 2.445 h. In data set [3] (setting [5]), this compound registered an AUCInf of 24.420076 µg·h/mL, an AUClast of 24.389836 µg·h/mL, a Cmax of 7300 ng/mL and a T1/2 of 2.445 h. Besides, at POLRMT, the “Expression of genes regulated by POLRMT (ND1, CYTB, COX1)” value is listed as “(++) ((++) represents P < 0.01)”. In addition, in the data set with A2780 cells, the IC50 lay in the range of 20 to 100 nM. In addition, the “Expression of genes regulated by RNA pol III (5S)” value in data set [4] was “(-) ((-) represents P≥ 0.05)”. Further, the “inhibition of the activity of RNA polymerase III” value in data set [4] (qPCR, in words) is listed as “do not inhibit”.
As to `CC(Oc1ccc2c(-c3ccc(F)cc3Cl)cc(=O)oc2c1)C(=O)C1CCC(C(=O)[O-])CC1.[Na+]` (stereo not drawn) [α-10], the half-life in data set [3] (setting [8]) is 4.29 h. In the data set with A2780 cells (Homo sapiens, 168 h), the IC50 was under 20 nM.
With `CC(Oc1ccc2c(-c3ccc(F)cc3Cl)cc(=O)oc2c1)C(=O)C1CCNCC1` (stereo not drawn) [α-11], the half-life in data set [3] (setting [8]) is 5.27 h. Further, the IC50 in the data set with A2780 cells (Homo sapiens, 168 h) fell in the range of 20 to 100 nM.
For the compound `CC(Oc1ccc2c(-c3ccc(F)cc3Cl)cc(=O)oc2c1)C(=O)c1ccncc1` (stereo not drawn) [α-13], in data set [3] (setting [8]), the half-life is 6.91 h. The half-maximal inhibitory concentration (IC50) in the data set with A2780 cells (Homo sapiens, 168 h) lay in the range of 20 to 100 nM.

These data come from patent publication US20260200885A1, “BENZOPYRONE COMPOUNDS AS WELL AS PREPARATION METHOD THEREFOR AND USE THEREOF” (CHENGDU DI’AO JIUHONG PHARMACEUTICAL FACTORY, priority 2022, published 2026).
